Source: ChEMBL document CHEMBL4818987, “Recent advances of podophyllotoxin/epipodophyllotoxin hybrids in anticancer activity, mode of action, and structure-activity relationship: An update (2010-2020)” (Eur J Med Chem, 2020)
pIC50: −log10 of the molar value.

Legend:
A549 [1] = experiment: Potency index, ratio of etoposide IC50 to test compound IC50 for antiproliferative activity against human A549 cells; assay type: functional
HepG2 [2] = experiment: Potency index, ratio of etoposide IC50 to test compound IC50 for antiproliferative activity against human HepG2 cells; assay type: functional
HepG2 [3] = experiment: Antiproliferative activity against human HepG2 cells incubated for 3 days by MTT assay; assay type: functional, cell-based; conditions: HepG2, 72 h
HCT-116 [4] = experiment: Antiproliferative activity against human HCT116 cells incubated for 3 days by MTT assay; assay type: functional, cell-based; conditions: HCT-116, 72 h
A549 [5] = experiment: Antiproliferative activity against human A549 cells incubated for 3 days by MTT assay; assay type: functional, cell-based; conditions: A549, 72 h
HCT-116 [6] = experiment: Potency index, ratio of etoposide IC50 to test compound IC50 for antiproliferative activity against human HCT116 cells; assay type: functional
[7] = Terminal half life in Sprague-Dawley rat at 2.5 mg/kg, iv measured after 5 to 1440 mins by LC-MS/MS analysis; assay type: ADME, organism-based; conditions: in vivo, time 5-1440 min, read-out: beta t1/2 (converted)
[8] = MRT in Sprague-Dawley rat at 2.5 mg/kg, iv measured after 5 to 1440 mins by LC-MS/MS analysis; assay type: ADME, organism-based; conditions: in vivo, time 5-1440 min
[9] = Mean initial plasma concentration in Sprague-Dawley rat at 2.5 mg/kg, iv measured after 5 to 1440 mins by LC-MS/MS analysis; assay type: ADME, organism-based; conditions: rat, plasma, iv, time 5-1440 min, dose 2.5 mg/kg, read-out: C0
[10] = AUCinfinity in Sprague-Dawley rat at 2.5 mg/kg, iv measured after 5 to 1440 mins by LC-MS/MS analysis; assay type: ADME, organism-based; parameters: route intravenous, dose 2.5 mg/kg, time upper 1440 min, time lower 5 min; conditions: in vivo, 2.5 mg/kg
[11] = Plasma clearance in Sprague-Dawley rat at 2.5 mg/kg, iv measured after 5 to 1440 mins by LC-MS/MS analysis; assay type: ADME, organism-based; parameters: dose 2.5 mg/kg, time upper 1440 min, time lower 5 min; conditions: time 5-1440 min, dose 2.5 mg/kg
DU-145 = experiment: Antiproliferative activity against human DU145 cells by MTT assay; assay type: functional, cell-based
A549 [12] = experiment: Antiproliferative activity against human A549 cells incubated for 48 hrs by MTT assay; assay type: functional, cell-based; conditions: A549, 48 h
MCF7 [13] = experiment: Antiproliferative activity against human MCF7 cells incubated for 48 hrs by MTT assay; assay type: functional, cell-based; conditions: MCF7, 48 h
SW480 [14] = experiment: Antiproliferative activity against human SW480 cells incubated for 48 hrs by MTT assay; assay type: functional, cell-based; conditions: SW480, 48 h
SMMC-7721 [15] = experiment: Antiproliferative activity against human SMMC-7721 cells incubated for 48 hrs by MTT assay; assay type: functional, cell-based; conditions: SMMC-7721, 48 h
HL-60 [16] = experiment: Antiproliferative activity against human HL-60 cells incubated for 48 hrs by MTT assay; assay type: functional, cell-based; conditions: HL-60, 48 h
[17] = Cytotoxicity against human BEAS2B cells; assay type: cell-based; conditions: BEAS-2B cells
[18] = Selectivity index, ratio of CC50 for human BEAS2B cells to IC50 for human HL60 cells; assay type: toxicity; conditions: read-out: Ratio CC50/IC50
[19] = Selectivity index, ratio of CC50 for human BEAS2B cells to IC50 for human SMMC7721 cells; assay type: toxicity; conditions: read-out: Ratio CC50/IC50
[20] = Selectivity index, ratio of CC50 for human BEAS2B cells to IC50 for human A549 cells; assay type: toxicity; conditions: read-out: Ratio CC50/IC50
[21] = Selectivity index, ratio of CC50 for human BEAS2B cells to IC50 for human MCF7 cells; assay type: toxicity; conditions: read-out: Ratio CC50/IC50
[22] = Selectivity index, ratio of CC50 for human BEAS2B cells to IC50 for human SW480 cells; assay type: toxicity; conditions: read-out: Ratio CC50/IC50
MCF7 [23] = experiment: Cytotoxicity against human MCF7 cells by MTT assay; assay type: functional, cell-based
HL-60 [24] = experiment: Antiproliferative activity against human HL-60 cells by MTT assay; assay type: functional, cell-based
SMMC-7721 [25] = experiment: Antiproliferative activity against human SMMC-7721 cells by MTT assay; assay type: functional, cell-based
A549 [26] = experiment: Antiproliferative activity against human A549 cells by MTT assay; assay type: functional, cell-based
SW480 [27] = experiment: Antiproliferative activity against human SW480 cells by MTT assay; assay type: functional, cell-based
A549 [28] = experiment: Antiproliferative activity against human A549 cells incubated for 72 hrs by MTT assay; assay type: functional, cell-based; conditions: A549, 72 h
MCF7 [29] = experiment: Potency index, ratio of etoposide IC50 to test compound IC50 for antiproliferative activity against human MCF7 cells; assay type: functional
SMMC-7721 [30] = experiment: Potency index, ratio of etoposide IC50 to test compound IC50 for antiproliferative activity against human SMMC7721 cells; assay type: functional
SW480 [31] = experiment: Potency index, ratio of etoposide IC50 to test compound IC50 for antiproliferative activity against human SW480 cells; assay type: functional
HL-60 [32] = experiment: Potency index, ratio of etoposide IC50 to test compound IC50 for antiproliferative activity against human HL60 cells; assay type: functional

For `COc1cc([C@@H]2c3cc4c(cc3[C@@H](NC(=S)NC(=O)c3ccccc3)[C@H]3COC(=O)[C@H]23)OCO4)cc(OC)c1OC`, the “Ratio IC50” value (A549 [1]) was 49, the “Ratio IC50” value (HepG2 [2]) was 49 and the pIC50 (HepG2 [3]) was 7.00. For the same molecule, the pIC50 (HCT-116 [4]) was 7.00, the pIC50 (A549 [5]) was 7.00 and the “Ratio IC50” value (HCT-116 [6]) was 49.
With `COc1cc([C@@H]2c3cc4c(cc3[C@@H](NCC(F)(F)[C@]3(O)O[C@H](CO)[C@@H](O)[C@H](O)[C@H]3O)[C@H]3COC(=O)[C@H]23)OCO4)cc(OC)c1OC` the half-life [7] was 67.8 min, the MRT [8] was 16.2 min and the C0 [9] was 8780 ng/mL. It also gave an AUC(0-inf) [10] of 2210 ng·h/mL and a clearance [11] of 19 mL/min/kg.
Molecule `COc1cc([C@@H]2c3cc4c(cc3[C@@H](OCc3cn([C@@H]5O[C@H](COC(C)=O)[C@@H](OC(C)=O)[C@H](OC(C)=O)[C@H]5OC(C)=O)nn3)[C@H]3COC(=O)[C@H]23)OCO4)cc(OC)c1OC` has a pIC50 (DU-145) of 5.99.
For `CCCC(=O)OC[C@H]1O[C@@H](OC(COCc2cn([C@@H]3c4cc5c(cc4[C@@H](c4cc(OC)c(OC)c(OC)c4)[C@H]4C(=O)OC[C@@H]43)OCO5)nn2)COCc2cn([C@@H]3c4cc5c(cc4[C@@H](c4cc(OC)c(OC)c(OC)c4)[C@H]4C(=O)OC[C@@H]43)OCO5)nn2)[C@H](OC(=O)CCC)[C@@H](OC(=O)CCC)[C@@H]1OC(=O)CCC` (stereo partly drawn), the pIC50 (A549 [12]) was 6.37, the pIC50 (MCF7 [13]) was 6.37 and the pIC50 (SW480 [14]) was 6.37. It also gave a pIC50 (SMMC-7721 [15]) of 6.37, a pIC50 (HL-60 [16]) of 6.37 and a CC50 [17] of 15400 nM. The selectivity ratio [18] was 4.3, the selectivity ratio [19] was 4.3 and the selectivity ratio [20] was 4.3. It also gave a selectivity ratio [21] of 4.3 and a selectivity ratio [22] of 4.3.
`COc1cc([C@@H]2c3cc4c(cc3[C@@H](n3cc(CO[C@@H]5O[C@H](CO[C@@H]6O[C@H](CO)[C@@H](O)[C@H](O)[C@H]6O)[C@@H](O)[C@H](O)[C@H]5O)nn3)[C@H]3COC(=O)[C@H]23)OCO4)cc(OC)c1OC` showed a pIC50 (MCF7 [23]) of 6.17, a pIC50 (HL-60 [24]) of 6.17 and a pIC50 (SMMC-7721 [25]) of 6.17. For the same molecule, the pIC50 (A549 [26]) was 6.17 and the pIC50 (SW480 [27]) was 6.17.
In the case of `COc1cc([C@@H]2c3cc4c(cc3[C@@H](n3cc(CO[C@H]5O[C@H](CO)[C@H](O)[C@H](O)[C@H]5O)nn3)[C@H]3COC(=O)[C@H]23)OCO4)cc(OC)c1O`, the pIC50 (A549 [28]) was 5.55, the pIC50 (MCF7 [13]) was 5.55 and the “Ratio IC50” value (A549 [1]) was 2. For the same molecule, the “Ratio IC50” value (MCF7 [29]) was 2, the pIC50 (SW480 [14]) was 5.55 and the pIC50 (SMMC-7721 [15]) was 5.55. For the same molecule, the pIC50 (HL-60 [16]) was 5.55, the “Ratio IC50” value (SMMC-7721 [30]) was 2 and the “Ratio IC50” value (SW480 [31]) was 2. For the same molecule, the “Ratio IC50” value (HL-60 [32]) was 2.
